Values quoted from earlier work as cited in patent publication US20240009181A1, “METHOD FOR THE TREATMENT AND PROPHYLAXIS OF SUBSTANCE-RELATED AND/OR ADDICTIVE DISORDERS INCLUDING SUBSTANCE/MEDICATION-INDUCED DEPRESSIVE DISORDERS, BIPOLAR AND RELATED DISORDERS, AND ANXIETY DISORDERS AND COMPOSITIONS USEFUL FOR THE SAME” (priority 2022, published 2024).

Tests used:
[1] = test system: opioid use disorder; settings: vs. 23% given placebo
[2] = in vivo

Row | half-life [2] | SMILES | complete abstinence (opioid-free over 19 weeks of treatment), share of subjects [1] [%]
1 |  | O=C1CC[C@@]2(O)[C@H]3Cc4ccc(O)c5c4[C@@]2(CCN3CC2CC2)[C@H]1O5 [naltrexone] | 36
2 | about 75 hours | O=C1CCc2ccc(OCCCCN3CCN(c4cccc(Cl)c4Cl)CC3)cc2N1 [aripiprazole] | 
3 | about 21 hours | CC1(C)O[C@@H]2[C@@H](CO[C@@]3(COS(N)(=O)=O)OC(C)(C)O[C@@H]23)O1 [topiramate] | 
4 | about 91 hours | O=c1ccc2ccc(OCCCCN3CCN(c4cccc5sccc45)CC3)cc2[nH]1 [brexpiprazole] | 
